Experimental data published in patent publication US20100286069A1, “CATIONIC PEPTIDE FOR DELIVERING AN AGENT INTO A CELL” (priority 2007, published 2010).
Entries after “also recorded” stand apart in the source; their conditions may differ. Where no end group is shown, it is not given here.

How the values were obtained:
[1] = test system: pDNA; assay: Gel retardation assay (Example 2); format: binding; settings: PBS; N/P 1 to 10
Description: Complex formation of peptide amphiphiles with DNA: Complexes were formed at different N/P ratios by directly mixing equal volume of peptide and plasmid DNA (pDNA) solutions to achieve the intended N/P ratio, which measured the relative molar content of nitrogen atoms (N) in each peptide molecule to that of the phosphate groups (P) in each pDNA molecule, and was calculated based on the standardized 3 μgDNA/nmole DNA rule of thumb as described previously (31). To allow for complete electrostatic interaction between peptide and pDNA molecules, the solution was equilibrated at room temperature for 30 minutes upon mixing before being used for further studies.
Gel retardation assay: Various formulations of AK27/pDNA and AK32/pDNA complexes, ranging from N/P ratios of 1 to 10, were prepared in PBS. Post-equilibration, the complexes were electrophoresed on 1% agarose gel (stained with 4 μL of 0.5 μg/ml ethidium bromide per 50 mL of gel) in 0.5×TBE buffer at 80 V for 60 minutes. The gel was then analysed on a UV illuminator (Chemi Genius, Evolve, Singapore) to show the position of the complexed pDNA relative to that of the non-complexed form.
DNA binding: Gel retardation assays of the two peptide-based amphiphiles were performed to qualitatively study the electrostatic interaction between the peptide and pDNA.

[2] = Zeta potential measurement (Example 2); format: physicochemical; settings: N/P ratio 40; phosphate buffer pH 6.5
Description: Particle size and Zeta potential measurement: The particle size and zeta potential of the complexes were measured by dynamic light scattering (Brookhaven Instrument Corp., Holtsville, N.Y., U.S.A.) and using Zetasizer (Malvern Instrument Ltd., Worchestershire, UK), respectively. Briefly, AK27/pDNA and AK32/pDNA complexes were formed in phosphate buffer (pH 6.5) at room temperature at different N/P ratios (i.e. 1, 10, 20, 30 and 40). All the particle size measurements were performed with a light source of 677 nm wavelength and 15° constant angle. The particle size measurement was repeated for 5 runs for each sample, and the data was reported as the effective mean diameter. The zeta potential measurement was repeated for 3 runs per samples, and the data was calculated automatically using the software from the electrophoretic mobility based on the Smoluchowski's formula.

[3] = Critical micelle concentration (CMC) measurement with pyrene; format: physicochemical; settings: PBS (pH 7.4)
Description: Critical micelle concentration (CMC) measurement: The CMC of the peptide amphiphile was measured using pyrene as the probe fluorescence molecule. A series of peptide solutions was prepared at various concentrations (0.01 to 2000 mg/L) in PBS. When excited at 337 nm wavelength, the electrons in the pyrene molecules absorb energy, and in turn, emit photons at wavelengths between 350-450 nm, as indicated by five emission peaks in the pyrene fluorescence spectrum (30). At the concentration of amphiphile above its CMC, when the amphiphile forms core/shell structured nanoparticles having a hydrophobic core and a hydrophilic shell, the pyrene molecules aggregate and are solubilized into the core giving […] intensity of the third peak in the emission spectrum. Therefore, monitoring the intensity of the third peak of pyrene's emission spectra, usually normalized to the first peak's intensity, provides a means to estimate the transition concentration (i.e. CMC) of the amphiphile aggregation.
The inflection point gives an estimate of CMC of AK27 in PBS (pH 7.4), which was approximately 120 mg/L.

[4] = test system: HEK293 cell line; assay: In vitro luciferase gene expression in HEK293 (Example 2); format: cell-based, human
Description: (§1) Cell culture: Both HEK293 and HepG2 cell lines were cultured in high glucose DMEM medium supplemented with 10% fetal bovine serum (FBS), 100 μg/mL penicillin, and 100 μg/mL streptomycin at 37° C. in a humidified 5% carbon dioxide incubator. 4T1 cell line was also cultured with the same condition as the other cell lines, but in RPMI 1640 growth medium supplemented with 10 mM HEPES.
(§2) In vitro gene expression: HEK293, HepG2, and 4T1 cells were seeded onto 24-well plates at 80,000, 80,000 and 50,000 cells/well, respectively, using the same growth medium and conditions as described previously. After one day, the cells achieved about 70-80% confluence, at which transfection experiments were performed. Briefly, peptide/pDNA complexes were prepared at N/P 1, 10, 20, 30, 35, 40, 45 and 50, and different pH in either sodium acetate buffer (pH 5) or phosphate buffer (pH 6.5 and 7.4). The transfection pH was firstly optimized using HEK293 cell lines and AK27 peptide. […] The total amount of DNA loaded was kept constant at 2.5 μg/well. Cells were allowed to incubate with serum and antibiotics-supplemented growth medium (500 μL/well), onto which the complex solutions (50 μL/well) were added. After four hours following the incubation with the complexes, the medium was then replaced with the fresh one. […] The relative light units (RLU) were measured using a luminometer (Lumat LB9507, Berthold, Germany). […]

[5] = test system: HEK293, HepG2 and 4T1 cell lines; assay: In vitro luciferase gene expression, three cell lines (Example 2); format: cell-based, human, mouse; settings: for luciferase gene expression level compared with PEI at N/P 10: general, three cell lines
Description: as §1
In vitro gene expression: HEK293, HepG2, and 4T1 cells were seeded onto 24-well plates at 80,000, 80,000 and 50,000 cells/well, respectively, using the same growth medium and conditions as described previously. After one day, the cells achieved about 70-80% confluence, at which transfection experiments were performed. Briefly, peptide/pDNA complexes were prepared at N/P 1, 10, 20, 30, 35, 40, 45 and 50, and different pH in either sodium acetate buffer (pH 5) or phosphate buffer (pH 6.5 and 7.4). The transfection pH was firstly optimized using HEK293 cell lines and AK27 peptide. […] The total amount of DNA loaded was kept constant at 2.5 μg/well. Cells were allowed to incubate with serum and antibiotics-supplemented growth medium (500 μL/well), onto which the complex solutions (50 μL/well) were added. After four hours following the incubation with the complexes, the medium was then replaced with the fresh one. After 68 hours, the culture medium was removed, and the cells were washed with 0.5 mL of PBS (pH 7.4). 0.2 mL of reporter lysis buffer (Promega, Madison, Wis.) was then added to each well to lyse the cells. The cell suspension was next subjected to two cycles of freezing and thawing, and was centrifuged at 14,000 rpm for 5 minutes. 20 μL of the supernatant of the cell lysate was mixed with 100 μL of luciferase substrate (Promega). The relative light units (RLU) were measured using a luminometer (Lumat LB9507, Berthold, Germany). The luciferase activity was normalized to protein content using the BCA protein assay (Sigma). In all these experiments, both naked DNA-transfected cells and PEI-transfected cells were used as negative and positive controls, respectively. […]

[6] = MTT cytotoxicity assay in three cell lines (Example 2); format: cell-based, human, mouse; settings: HEK293, HepG2 and 4T1 cells; blank nanoparticles and pDNA complexes, even at higher N/P ratios
Description: as §1
Cytotoxicity assay: The cytotoxicity of AK27, AK32, AK27/pDNA and AK32/pDNA complexes were all measured using the standard MTT assay protocol. Briefly, HEK293, HepG2 and 4T1 cell lines were seeded onto 96-well plates at 10,000 cells/well, 8,000 cells/well, and 6,000 cells/well seeding density, respectively. Post cell-seeding, the cells were incubated for one day before being used for cytotoxicity assay. For cytotoxicity assay with AK27/pDNA, complexes at N/P ratios of 1, 10, 20, 30, 35, 40, 45 and 50 were prepared in phosphate buffer (pH 6.5) as described earlier. […] After homogenizing the solution, 100 μL of the samples was spectrophotometrically read in a microplate reader (Biorad) at 550 nm and 690 nm wavelength. The relative cell viability was measured as ([Abs550]sample−[Abs690]sample)/([Abs550]control−[Abs690]control)×100%.

[7] = test system: HepG2 cell line; assay: In vitro luciferase gene expression in HepG2 (Example 2); format: cell-based, human; settings: PEI N/P 10, pH 6.5
Description: as §1, §2

[8] = test system: 4T1 cell line; assay: In vitro luciferase gene expression in 4T1 (Example 2); format: cell-based, mouse; settings: PEI N/P 10, pH 6.5
Description: as §1, §2

| Sequence | N/P ratio for complete retardation of DNA [1] | highest zeta potential of peptide/pDNA complexes [2] | CMC [3] | optimum complexation pH for transfection ([4]; pH 5, 6.5 and 7.4 tested) | highest luciferase expression level compared with PEI ([5]; at N/P ratio of 45, PEI N/P 10) | luciferase gene expression level compared with PEI at N/P 10 [5] | viability at 4 h [6] [%] | highest luciferase expression level compared with PEI [7] | highest luciferase expression level compared with PEI ([4]; PEI N/P 10, pH 6.5) | highest luciferase expression level compared with PEI [8] |
| --- | --- | --- | --- | --- | --- | --- | --- | --- | --- | --- |
| AAAAAAAAAAAAHHHHHKKKKKKKKKK [AK27, (A)12(H)5(K)10] | 3 | approximately 7.8±1.1 mV | approximately 120 mg/L | around 6.5 | about one order of magnitude lower | an order of magnitude less | > 80 |  |  |  |
| AAAAAAAAAAAAHHHHHKKKKKKKKKKKKKKK [AK32, (A)12(H)5(K)15] | 2 | ~18.2±0.5 mV |  |  |  | almost comparable | > 80 | comparable to that provided by PEI; also recorded: comparable to that yielded by PEI | comparable to that provided by PEI; also recorded: comparable to that yielded by PEI | less than an order of magnitude lower |
